Assay results reported in patent US6294547A, “Naphthyridine deratives or salts thereof” (Nippon Kayaku Kabushiki Kaisha, priority 1997, dated 2001).
Where a name gives a salt, the structure may show the parent alone.

Experiments:
[1] = tested on: NK-2 receptors; experiment: Inhibitory effect on bronchoconstriction caused by stimulation of NK-2 receptors (Nle10 neurokinin A (4-10)); type: in vivo, Hartley strain male guinea pigs
Description: There were used non-treated Hartley strain male guinea pigs and Hartley strain male guinea pigs received to active sensitization by subcutaneous administration of 30 mg/kg of ovalbumin 14 to 21 days before. The guinea pigs were anesthetized with pentobarbital and a tube was inserted into the trachea of each guinea pig. The guinea pigs were subjected to positive pressure respiration by means of an artificial respiratory apparatus at 10 ml/kg and 60 times/minute. The pressure in the edge of the tube in the trachea was measured as an indication of bronchoconstriction. Spontaneous respiration was inhibited by administering succinylcholine. The non-treated guinea pigs were repeatedly and intravenously injected with 2 nmol/kg of Nle10 neurokinin A (4-10), a specific stimulating agent for NK-2 receptors at intervals of 10 minutes. After the bronchoconstriction thus caused became stable, each drug was administered intravenously, orally or in duodenum. Nle10 neurokinin A (4-10) was intravenously injected again 3 minutes after the intravenous administration or 50 minutes after the oral administration or the administration in duodenum. The rate of inhibition by the drug was determined relative to the bronchoconstriction before the drug administration.

[2] = tested on: NK-2 receptors; experiment: Antagonism for NK-2 receptors (neurokinin A induced contraction of isolated trachea); type: cell-based, Hartley strain male guinea pigs; details: concentration 5 × 10^-9 M; neurokinin A 1×10^-9 M; guinea pig trachea; 110 min incubation
Description: Hartley strain male guinea pigs were killed by a blow on the head and blood-letting, and the tracheas were isolated. Specimens each composed of five slices of the trachea were prepared, and suspended at a tension of 0.5 gw in a magunus bath with an internal volume of 15 ml containing Krebs-Henseleit solution of 37° C. while introducing a mixed gas of 95% O2 +5% CO2 into the bath. As the Krebs-Henseleit solution, that containing indomethacin ([…]) was used for preventing the participation of intrinsic prostaglandins. After confirming the maximum degree of contraction of each specimen by the use of methacholine,a drug or a solvent therefor was added to the solution, followed by incubation for 110 minutes, and neurokinin A (1×10^-9 M) was allowed to act on the specimen. Phosphoramidon (1×10^-5 M) for inhibiting the degradation of neurokinin A and (±)CP-96345 (3×10^-7 M) for preventing the participation of NK-1 receptors were added 30 minutes and 20 minutes, respectively, before the addition of neurokinin A. The degree of contraction due to neurokinin A was converted to the percentage based on the maximum degree of contraction of the specimen, and then the rate of inhibition by the drug was determined relative to the percentage of contraction of the other specimen used in the case of adding the solvent.

[3] = target: T1, NK-2 receptors (Rattus norvegicus, UniProt P16610); experiment: Binding to NK-2 receptors (inhibition of radioactive 125I-neurokinin A binding); type: Fischer strain male rats (duodenum membranes); details: rat duodenum membrane; 125I-neurokinin A 1×10^-9 M; 90 min, room temperature; read-out: IC50 of drugs in binding of radioactive neurokinin A
T1 construct: Duodenums isolated from Fischer strain male rats were homogenized; from tissue; host or cells: duodenum membranes of male Fischer rats
T1 sequence (P16610 1-390): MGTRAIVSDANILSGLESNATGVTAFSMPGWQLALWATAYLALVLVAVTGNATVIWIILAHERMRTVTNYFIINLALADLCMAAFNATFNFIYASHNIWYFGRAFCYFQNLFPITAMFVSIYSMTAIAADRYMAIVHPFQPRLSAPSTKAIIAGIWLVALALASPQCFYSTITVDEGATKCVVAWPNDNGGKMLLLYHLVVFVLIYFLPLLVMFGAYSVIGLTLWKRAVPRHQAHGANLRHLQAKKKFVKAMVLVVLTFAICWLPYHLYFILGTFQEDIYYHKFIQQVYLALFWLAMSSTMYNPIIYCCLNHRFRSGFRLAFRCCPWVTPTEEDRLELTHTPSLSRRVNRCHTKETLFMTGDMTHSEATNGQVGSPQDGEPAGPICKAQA
Description: Duodenums isolated from Fischer strain male rats were homogenized in 50 mM Tris-hydrochloric acid buffer (pH 7.4) containing saccharose (100 mg/ml) and ethylenediaminetetraacetic acid (1 mM), and the resulting homogenate was centrifuged at 48,000 g and 4° C. for 20 minutes. The pellet thus obtained was washed three times with 10 times as much 50 mM Tris-hydrochloric acid buffer (pH 7.4) containing KCl (300 mM) and ethylenediaminetetraacetic acid (10 mM) as the pellet by volume, and the resulting membrane preparation was suspended in 10 times as much 50 mM Tris-hydrochloric acid buffer (pH 7.4) as the membrane preparation by volume and stored at -80° C. until use. The membrane preparation (20 mg/ml) was incubated together with a radioactive ligand ^125 I-neurokinin A (1×10^-9 M) at room temperature for 90 minutes in the presence of each drug or a solvent therefor in 50 mM Tris-hydrochloricacid buffer (pH 7.4) containing bovine serum albumin (10 mg/ml), bacitracin (40 μg/ml), leupeptin (4 μg/ml), chymostatin (50 μg/ml), antipain (1×10^-4 M) and MnCl2 (1 mM). […] Then, radioactivity in the filter was measured with a gamma counter. The 50% inhibitory concentration (IC50) of the drug was determined by means of a regression line by considering radioactivity in the presence of Nle10 neurokinin A (4-10) (3×10^-6 M) to be due to nonspecific binding, and measuring the rate of inhibition of specific binding by the drug by carrying out a control experiment using the solvent alone.

[4] = tested on: Mouse; experiment: Toxic effect on mouse, intravenous; type: in vivo
From the text: The toxicity of the compounds of the present invention was investigated.

[5] = tested on: bronchoconstriction caused by inhalation of an antigen; experiment: Inhibitory effect on bronchoconstriction caused by inhalation of antigen (ovalbumin); type: in vivo, Hartley strain male guinea pigs (active sensitization); details: 10 μmol/kg oral, 50 min before antigen inhalation; measured 8 min after
Description: There were used non-treated Hartley strain male guinea pigs and Hartley strain male guinea pigs received to active sensitization by subcutaneous administration of 30 mg/kg of ovalbumin 14 to 21 days before. The guinea pigs were anesthetized with pentobarbital and a tube was inserted into the trachea of each guinea pig. The guinea pigs were subjected to positive pressure respiration by means of an artificial respiratory apparatus at 10 ml/kg and 60 times/minute. The pressure in the edge of the tube in the trachea was measured as an indication of bronchoconstriction. Spontaneous respiration was inhibited by administering succinylcholine. […] The rate of inhibition by the drug was determined relative to the bronchoconstriction before the drug administration.
To the guinea pigs received to active sensitization, 4.6 μmol/kg of phosphoramidon was intravenously administered, and 15 minutes after the administration, these guinea pigs were allowed to inhale for 2 minutes an aerosol of an antigen ovalbumin solution (2 mg/ml) produced with an ultrasonic nebulizer, to cause bronchoconstriction. […] The inhibition rate of the drug-treated group was determined relative to the bronchoconstriction of the solvent-treated group measured 8 minutes after the antigen inhalation.

## CN(CC(CCN1CCc2nc3c(cc2C1)CCCC3)c1ccc(Cl)c(Cl)c1)C(=O)c1ccccc1 (single isomer, unassigned) [Example 25, 2-[(-)-4-(N-benzoyl-N-methyl)amino-3-(3,4-dichlorophenylbutyll-1,2,3,4,6,7,8,9-octahydro-benzo[b][1,6]naphthyridine fumarate]
[1]; 1 μmol/kg intravenous, 3 min after administration
  Inhibition (rate), stimulation of NK-2 receptors: 94.2%
[1]; 8 μmol/kg oral, 50 min after administration
  Inhibition (rate), stimulation of NK-2 receptors: 67.2%
[2]
  Inhibition rate, neurokinin A induced contraction: 89.1%
[3]
  IC50: 56 nM
[4]; 22 μmol/kg intravenous
  Toxicity: None
[4]; 65 μmol/kg intravenous
  Toxicity: None
[5]
  Inhibition (rate), inhalation of antigen: 54.1%
